Test results taken from ChEMBL document CHEMBL1149707, “Structure-activity relationship studies of carboxamido-biaryl ethers as opioid receptor antagonists (OpRAs). Part 1” (Bioorg Med Chem Lett, 2007).

Columns and labels:
[1] = biological target: T1, Mu-type opioid receptor (Homo sapiens, UniProt P35372); assay: Antagonist activity at human mu opioid receptor expressed in CHO cells by [35S]GTP-gamma-S binding assay; format: functional, cell-based
[2] = biological target: T2, Kappa-type opioid receptor (Homo sapiens, UniProt P41145); assay: Antagonist activity at human kappa opioid receptor expressed in CHO cells by [35S]GTP-gamma-S binding assay; format: functional, cell-based
T2 sequence (P41145 whole entry): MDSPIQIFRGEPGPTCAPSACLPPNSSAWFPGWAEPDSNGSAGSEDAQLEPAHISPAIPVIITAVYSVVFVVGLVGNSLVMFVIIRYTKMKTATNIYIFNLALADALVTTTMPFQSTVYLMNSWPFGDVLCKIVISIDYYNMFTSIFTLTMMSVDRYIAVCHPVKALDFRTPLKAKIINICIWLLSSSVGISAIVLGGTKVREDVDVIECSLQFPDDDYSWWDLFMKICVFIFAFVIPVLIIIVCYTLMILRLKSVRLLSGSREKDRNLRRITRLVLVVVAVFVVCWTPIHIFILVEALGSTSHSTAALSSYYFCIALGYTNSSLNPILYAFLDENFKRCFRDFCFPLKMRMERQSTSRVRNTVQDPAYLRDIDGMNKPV

[3] = biological target: T3, Delta-type opioid receptor (Homo sapiens, UniProt P41143); assay: Antagonist activity at human delta opioid receptor expressed in CHO cells by [35S]GTP-gamma-S binding assay; format: functional, cell-based
T3 sequence (P41143 whole entry): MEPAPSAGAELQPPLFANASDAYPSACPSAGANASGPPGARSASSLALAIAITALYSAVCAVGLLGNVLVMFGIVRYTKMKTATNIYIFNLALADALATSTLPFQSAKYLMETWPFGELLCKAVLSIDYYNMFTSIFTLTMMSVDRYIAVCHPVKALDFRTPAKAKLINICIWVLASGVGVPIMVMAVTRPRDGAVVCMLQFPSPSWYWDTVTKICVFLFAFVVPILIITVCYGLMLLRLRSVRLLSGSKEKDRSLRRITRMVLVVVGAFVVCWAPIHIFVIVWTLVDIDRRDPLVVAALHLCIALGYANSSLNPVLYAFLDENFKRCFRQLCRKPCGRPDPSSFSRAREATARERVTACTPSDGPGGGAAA

[4] = biological target: T3, Delta-type opioid receptor; assay: Displacement of [3H]bremazocine from human delta opioid receptor expressed in CHO cells in presence of high sodium by SPA; format: cell-based
[5] = biological target: T1, Mu-type opioid receptor; assay: Displacement of [3H]diprenorphine from human mu opioid receptor expressed in CHO cells in presence of high sodium by SPA; format: cell-based
[6] = biological target: T2, Kappa-type opioid receptor; assay: Displacement of [3H]diprenorphine from human kappa opioid receptor expressed in CHO cells in presence of high sodium by SPA; format: cell-based

T1 sequence (P35372 whole entry): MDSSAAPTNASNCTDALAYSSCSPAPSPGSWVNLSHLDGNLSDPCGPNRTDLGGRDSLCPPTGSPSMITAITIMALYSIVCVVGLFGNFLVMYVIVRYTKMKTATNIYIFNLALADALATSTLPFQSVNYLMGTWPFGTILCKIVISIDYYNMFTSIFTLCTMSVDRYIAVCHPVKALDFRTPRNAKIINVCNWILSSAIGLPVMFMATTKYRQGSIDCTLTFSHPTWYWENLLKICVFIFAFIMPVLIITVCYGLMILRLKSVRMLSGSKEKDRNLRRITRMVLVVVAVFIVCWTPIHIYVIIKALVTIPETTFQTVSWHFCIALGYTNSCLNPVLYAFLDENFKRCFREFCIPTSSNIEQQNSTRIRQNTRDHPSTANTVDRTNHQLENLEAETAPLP

| Structure (SMILES) | Ki [1] [nM] | Ki [2] [nM] | Kb [3] [nM] | Ki [4] [nM] | Ki [5] [nM] | Ki [6] [nM] |
| --- | --- | --- | --- | --- | --- | --- |
| NC(=O)c1ccc(Oc2ccc(CCNCCc3ccccc3)cc2)nc1 | 16.6 | 23.3 | 128 | – | – | – |
| CNC(=O)c1ccc(Oc2ccc(CNCCc3ccccc3)cc2)nc1 | – | – | – | 718 | 52.3 | > 5000 |
| NC(=O)c1ccc(Oc2ccc(NCCCc3ccccc3)cc2)nc1 | > 1000 | > 1000 | > 1000 | – | – | – |
| O=C(c1ccc(Oc2ccc(CNCCc3ccccc3)cc2)nc1)N1CCCCC1 | – | – | – | > 5000 | 389 | > 5000 |
| C[C@H]1CN(CC[C@H](O)C2CCCCC2)CC[C@@]1(C)c1cccc(O)c1 | – | – | 1.19 | 4.82 | – | – |
| CCNC(=O)c1ccc(Oc2ccc(CNCCc3ccccc3)cc2)nc1 | – | – | – | 674 | 57.1 | 2810 |
| NS(=O)(=O)c1ccc(Oc2ccc(CCNCc3ccccc3)cc2)cc1 | – | – | – | > 5000 | > 2500 | > 5000 |
| NC(=O)c1ccc(Oc2ccc(CCNCCCc3ccccc3)cc2)nc1 | 18.5 | 24.1 | 212 | – | – | – |
| NC(=O)c1ccc(Oc2ccc(CCNCc3ccccc3)cc2)nc1 | 2.25 | 18.4 | 23.1 | 70.2 | 7.44 | 136 |
| NC(=O)c1ccc(Oc2ccc(CNCCc3ccccc3)cc2)nc1 | 0.07 | – | – | – | 0.17 | – |
| NC(=O)c1ccc(Oc2ccc(CNCCc3ccccc3)cc2)cc1 | – | 1.22 | – | – | – | 15 |
| CC(C)NC(=O)c1ccc(Oc2ccc(CNCCc3ccccc3)cc2)nc1 | – | – | – | 2410 | 52.3 | > 5000 |
| NC(=O)c1ccc(Oc2ccc(CNCCc3ccccc3)cc2)cn1 | 0.44 | 9.6 | 2.86 | 8.54 | 1.77 | 69.3 |
| N#Cc1ccc(Oc2ccc(CCNCc3ccccc3)cc2)nc1 | – | – | – | > 5000 | 1080 | > 5000 |
| N=C(N)c1ccc(Oc2ccc(CNCCc3ccccc3)cc2)nc1 | – | – | – | 215 | 20.6 | 1150 |
| NCc1ccc(Oc2ccc(CCNCc3ccccc3)cc2)nc1 | – | – | – | > 5000 | > 2500 | > 5000 |
| NC(=O)c1ccc(Oc2ccc(CCCNCc3ccccc3)cc2)nc1 | 22.3 | 45.8 | 496 | – | – | – |
| NC(=O)c1cccnc1Oc1ccc(CCNCc2ccccc2)cc1 | – | – | – | > 5000 | > 2500 | > 5000 |
| NC(=O)c1ccnc(Oc2ccc(CCNCc3ccccc3)cc2)c1 | – | – | – | > 5000 | > 2500 | > 5000 |
| CNC(=N)c1ccc(Oc2ccc(CNCCc3ccccc3)cc2)nc1 | – | – | – | 3460 | 235 | > 5000 |
| O=C(O)c1ccc(Oc2ccc(CCNCc3ccccc3)cc2)nc1 | – | – | – | > 5000 | > 2500 | > 5000 |
| NC(=O)c1cccc(Oc2ccc(CCNCc3ccccc3)cc2)n1 | – | – | – | > 5000 | 643 | > 5000 |
| NC(=O)c1ccc(Oc2ccc(CNCc3ccccc3)cc2)nc1 | 4.09 | 2.47 | 54.1 | – | – | – |
| NC(=O)c1ccc(Oc2ccc(CCCNc3ccccc3)cc2)nc1 | > 1000 | > 1000 | > 1000 | – | – | – |
